Test [1] has as its system eNOS. Description: Western blotting of eNOS expression in isolated rat pulmonary artery ring, short-term (acute) hypoxia or normoxia. Format: cell-based. Conditions: for eNOS expression, Pulmonary Artery Ring: acute hypoxia, Normoxia 100, Hypoxia 65.3 ± 7.8. On the procedure:
(§1) In our in vitro short-term experiment, isolated rat pulmonary artery was grown under normoxia (20% O2) or hypoxia (1% O2) at 37° C. for 24 hrs as was previously done (Wu BN, et al. Int J Immunopathol Pharmacol 24:925, 2011). The heart weight and body weight ratio (HW/BW) of the rats treated with one of SPAAX-1, SPAAX-1 RX complex, Sildenafil or Sildenafil RX complex each measured on the 21st hypoxic day. All animal care and the experimental protocols of this study were approved by the Animal Care and Use Committee of the Kaohsiung Medical University. Male Wistar rats (200-250 g), provided by the National Laboratory Animal Breeding and Research Center (Taipei, Taiwan), were housed under constant temperature and controlled illumination. Food and water were available ad libitum.
(§2) Whole right lung tissues of hypoxia-treated and untreated rats were isolated and cut into small strips and placed into an extraction buffer (Tris 10 mM, pH 7.0, NaCl 140 mM, PMSF 2 mM, DTT 5 mM, NP-40 0.5%, pepstatin A 0.05 mM and leupeptin 0.2 mM) for protein extraction, and then centrifuged at 12,500 g for 30 min. To measure the expression levels of the proteins, the total proteins were extracted and Western blotting analysis was performed as described previously (Bivalacqua T J, et al., 2013, TJ PLoSONE 8: e68028. doi:10.1371/journal. pone.0068028). Briefly, the protein extract was boiled to a ratio of 4:1 with a sample buffer (Tris 100 mM, pH 6.8, glycerol 20%, SDS 4% and bromophenol blue 0.2%). Electrophoresis was performed using 10% SDS-polyacrylamide gel (2 hr, 100 V, 40 mA, […] protein per lane). Separated proteins were transferred to PVDF membranes treated with 5% fat-free milk powder to block the nonspecific IgGs (90 min, 100 V) and incubated for one hour with a specific protein antibody. The blot was then incubated with anti-mouse or anti-goat IgG linked to alkaline phosphatase (1:1000) for 1 hr. Immunoreactive bands were visualized using horseradish peroxidase-conjugated secondary antibodies and subsequent electrochemiluminescence (ECL) detection (GE Healthcare Bio-Sciences Corp., Piscataway, N.J., U.S.A.). Mouse or rabbit monoclonal antibody of eNOS (Upstate, N.Y., U.S.A.), sGCα (Sigma-Adrich, CA, U.S.A., sGCβ (Santa Cruz, Calif., U.S.A.), PDE-5A (BD Tansduction, San Jose, Calif., U.S.A.), PKG (Calbiochem, San Diego, Calif., U.S.A.) ROCKII (Upstate, N.Y., U.S.A.), RhoA (Santa Cruze, Calif., U.S.A.) and the loading control protein β-actin (Sigma-Adrich, MO, U.S.A.) were used in our Western blot analysis.
(§3) The Western blotting analysis measurements were performed as per lung tissue.
(Immunoblotting shows a protein as a band on a membrane.)

For test [2], the system named is ROCK II. Kind of test: Western blotting of ROCK II expression in isolated rat pulmonary artery ring, short-term (acute) hypoxia or normoxia. Format: cell-based. Conditions: for ROCK II expression, Pulmonary Artery Ring: acute hypoxia, Normoxia 100, Hypoxia 560 ± 21. As for the experimental part: as §1, §2, §3
Test [3] has as its system VEGF. Kind of test: Western blotting of VEGF expression in rat carvenosus strip, acute hypoxia. Type of test: cell-based. Also on record: unit not given here.
The test system of test [4] is VEGF. Description: Western blotting of VEGF expression in isolated rat pulmonary artery ring, short-term (acute) hypoxia. Type of test: cell-based. On the procedure:
as §1, §2, §3

Test [5] relates to eNOS. Kind of test: Western blotting of eNOS expression in rat carvenosus strip, acute hypoxia. On the set-up: unit not given here. Format: cell-based.
Test [6] has as its system ROCK II. Description: Cigarette smoking-induced Rho/ROCK activation of rat pulmonary artery ring. Type of test: in vivo. Conditions: Intraperitoneal (100 mg/kg) 1 h prior to smoke exposure, Non-Smoking control 100, Smoking 530 ± 34. As for the experimental part: Intraperitoneal SAA complex (100 mg/kg in 200 μl of the solution) or 200 μl of saline (control) were given to animals through intraperitoneal injection 1 h prior to smoke exposure.
as §2

Test [7] deals with ROCK II. Described as above. Type of test: in vivo. Conditions: Nebulization (2.5 mM), Non-Smoking control 100, Smoking 540 ± 28.
Where [8] appears, read: Normoxia 100, Hypoxia 62.4 ± 5.5.
Setting [9] is: normoxia for 24 hrs, 10 μm, versus non-treated controls.

Take `CCCCCCCCC=CCCCCCCCC(=O)O.CCCc1nn(C)c2c(=O)[nH]c(-c3cc(S(=O)(=O)N4CCN(C)CC4)ccc3OCC)nc12` [Reagent 1013, Sildenafil oleate complex]: in the test with eNOS [1], the “eNOS expression, Pulmonary Artery Ring” value was found to be 104 ± 18.
`CCCc1nn(C)c2c(=O)[nH]c(-c3cc(S(=O)(=O)N4CCN(C)CC4)ccc3OCC)nc12.O=C(O)CC(O)C(=O)O` [Reagent 1009, Sildenafil malate complex]: the “ROCK II expression, Pulmonary Artery Ring” value (“ROCK II expression” for short) in the test with ROCK II [2] is reported as 120 ± 12. In addition, in the test on VEGF [3] (Normoxia 100, Hypoxia 170 ± 15), the “VEGF expression, Carvenosus” value was determined as 118 ± 18.
On to “Sildenafil Arginate complex [Reagent 1017]”, for which the “eNOS expression, Pulmonary Artery Ring” value with eNOS [1] came out at 180 ± 12. For the same compound, the “VEGF expression, Pulmonary Artery Ring” value in the test with VEGF [4] (Normoxia 100, Hypoxia 175 ± 14) amounted to 90 ± 6.4. Also, in the test on ROCK II [2], the “ROCK II expression” value is on record as 182 ± 21. Further, the “eNOS expression, Carvenosus” value in the test with eNOS [5] (setting [8]) stood at 124 ± 11. In the test on VEGF [3] (Normoxia 100, Hypoxia 170 ± 15), the “VEGF expression, Carvenosus” value is on record as 90 ± 8.2.
For `CCCc1nn(C)c2c(=O)[nH]c(-c3cc(S(=O)(=O)N4CCN(C)CC4)ccc3OCC)nc12.O=C(O)c1ccccc1O` [Reagent 1016, Sildenafil-Salicylate complex] the same measures were 165 ± 16, 90 ± 5.2, 178 ± 19, 110 ± 4.7 and 90 ± 7.5.
On to `CCCc1nn(C)c2c(=O)[nH]c(-c3cc(S(=O)(=O)N4CCN(C)CC4)ccc3OCC)nc12.O=C1OC(C(O)CO)C(O)=C1O` [Reagent 1002, Sildenafil DL-ascorbate complex], for which the “eNOS expression, Pulmonary Artery Ring” value in the test on eNOS [1] (listed as 1002) came to 130 ± 6.4. The “VEGF expression, Pulmonary Artery Ring” value in the test with VEGF [4] (Normoxia 100, Hypoxia 175 ± 14, listed as 1002) worked out at 90 ± 5.8. Further, the “ROCK II expression” value with ROCK II [2] (listed as 1002) stood at 211 ± 12.5. Besides, the “eNOS expression, Carvenosus” value in the test with eNOS [5] (Normoxia 100, Hypoxia 62.4 ± 5.5, listed as 1002) is reported as 125 ± 5.4. Moreover, the “VEGF expression, Carvenosus” value in the test on VEGF [3] (Normoxia 100, Hypoxia 170 ± 15, listed as 1002) was determined as 90 ± 7.9.
`CC(O)C(=O)O.CCCc1nn(C)c2c(=O)[nH]c(-c3cc(S(=O)(=O)N4CCN(C)CC4)ccc3OCC)nc12` [Reagent 1011, Sildenafil lactate complex]: the “eNOS expression, Pulmonary Artery Ring” value with eNOS [1] is listed as 75 ± 13. Moreover, in the test on VEGF [4] (Normoxia 100, Hypoxia 175 ± 14), the “VEGF expression, Pulmonary Artery Ring” value came to 133 ± 17. In addition, in the test with ROCK II [2], the “ROCK II expression” value is 310 ± 21. Moreover, in the test on eNOS [5] (setting [8]), the “eNOS expression, Carvenosus” value is given as 46 ± 4.7. The “VEGF expression, Carvenosus” value in the test on VEGF [3] (Normoxia 100, Hypoxia 170 ± 15) is 118 ± 16.
For `CCCc1nn(C)c2c(=O)[nH]c(-c3cc(S(=O)(=O)N4CCN(C)CC4)ccc3OCC)nc12.O=C(O)C=CC(=O)O` [Reagent 1008, Sildenafil maleate complex], in the test with ROCK II [2] (listed as 1008), the “ROCK II expression” value stood at 150 ± 14. The “eNOS expression, Carvenosus” value in the test with eNOS [5] (setting [8]) was 45 ± 4.2. Besides, the “VEGF expression, Carvenosus” value in the test with VEGF [3] (Normoxia 100, Hypoxia 170 ± 15, listed as 1008) came to 116 ± 12.
On to `CCCc1nn(C)c2c(=O)[nH]c(-c3cc(S(=O)(=O)N4CCN(C)CC4)ccc3OCC)nc12.Cl` [Reagent 1003, Sildenafil HCl complex], for which the “eNOS expression, Pulmonary Artery Ring” value in the test on eNOS [1] came out at 116 ± 7.2. In the test on VEGF [4] (Normoxia 100, Hypoxia 175 ± 14), the “VEGF expression, Pulmonary Artery Ring” value came out at 94 ± 9.8. Also, in the test with eNOS [5] (setting [8]), the “eNOS expression, Carvenosus” value was 110 ± 5.2. For the same compound, the “VEGF expression, Carvenosus” value with VEGF [3] (Normoxia 100, Hypoxia 170 ± 15) amounted to 105 ± 16. Besides, the “ROCK II of pulmonary artery ring” value amounted to 82 ± 7.6 in the test with ROCK II [6] and 62 ± 4.8 with ROCK II [7].
Turning to `CCCc1nn(C)c2c(=O)[nH]c(-c3cc(S(=O)(=O)N4CCN(C)CC4)ccc3OCC)nc12.O=C(O)C(=O)O` [Reagent 1015, Sildenafil oxalate complex], in the test with eNOS [1], the “eNOS expression, Pulmonary Artery Ring” value was 68 ± 15. In addition, the “ROCK II expression” value in the test with ROCK II [2] came out at 395 ± 27. Further, the “eNOS expression, Carvenosus” value in the test on eNOS [5] (setting [8]) came out at 65 ± 4.7.
`C[C@@H](N)[C@H]1CC[C@H](C(=O)Nc2ccncc2)CC1` [Reagent Y27632, Y27632, reference compound]: in the test on eNOS [1] (hypoxia for 24 hrs, versus control level in normoxia, hypoxia 60±8.3%), the “eNOS in isolated hypoxic pulmonary artery” value came to 50±4.7%. Further, the “expression of eNOS in isolated pulmonary artery ring” value in the test with eNOS [1] (setting [9]) amounted to 114.1±12.3%. The “expression of ROCK II in isolated hypoxic pulmonary artery” value in the test with ROCK II [2] (hypoxia for 24 hrs, versus control level in normoxia, hypoxia 180±10.2%) came out at 150±13.1%. Also, in the test on ROCK II [2] (setting [9]), the “Expression of ROCK II in isolated pulmonary artery ring” value turned out to be 67.5±14.8%.
Turning to `CCCc1nn(C)c2c(=O)[nH]c(-c3cc(S(=O)(=O)N4CCN(C)CC4)ccc3OCC)nc12.O=C(O)C=CC(=O)O` [Reagent 1010, Sildenafil fumarate complex], the “ROCK II expression” value in the test with ROCK II [2] (listed as 1010) amounted to 125 ± 13. Further, the “VEGF expression, Carvenosus” value in the test on VEGF [3] (Normoxia 100, Hypoxia 170 ± 15, listed as 1010) came to 117 ± 17.
Regarding `CC(=O)O.CCCc1nn(C)c2c(=O)[nH]c(-c3cc(S(=O)(=O)N4CCN(C)CC4)ccc3OCC)nc12` [Reagent 1012, Sildenafil acetate complex], the “eNOS expression, Pulmonary Artery Ring” value in the test with eNOS [1] was 70 ± 13. The “ROCK II expression” value with ROCK II [2] amounted to 270 ± 27.
For the compound `CCCCCCCC/C=C\CCCCCCCC(=O)O.COc1ccccc1N1CCN(CCn2cnc3c2c(=O)n(C)c(=O)n3C)CC1` [Example 7, 7-[2-[4-(2-methoxyphenyl)piperazinyl]ethyl]-1,3-dimethylxanthine oleate complex], the “eNOS expression, Pulmonary Artery Ring” value in the test with eNOS [1] is 180 ± 7.6. Also, in the test on VEGF [4] (Normoxia 100, Hypoxia 175 ± 14), the “VEGF expression, Pulmonary Artery Ring” value stood at 91 ± 6.5. Moreover, the “ROCK II expression” value in the test on ROCK II [2] worked out at 190 ± 7.7. Also, the “eNOS expression, Carvenosus” value with eNOS [5] (setting [8]) is listed as 122 ± 4.9. Further, the “VEGF expression, Carvenosus” value in the test with VEGF [3] (Normoxia 100, Hypoxia 170 ± 15) came out at 84 ± 8.8.
For `Cn1c(=O)c2c(ncn2CCN2CCN(c3ccc([N+](=O)[O-])cc3)CC2)n(C)c1=O.O=C1O[C@H]([C@@H](O)CO)C(O)=C1O` [Example 8, 7-[2-[4-(4-nitrophenyl)piperazinyl]ethyl]-1,3-dimethyl-xanthine ascorbate complex] the same measures were 80 ± 3.2, 122 ± 16, 150 ± 14, 45 ± 4.2 and 116 ± 12.

Values taken from US20150306107A1, “SAA Derivative Compound Restores eNOS And Inhibits Oxidative Stress-Induced A Diseases In Hypoxia” (JANSFAT BIOTECHNOLOGY CO., LTD., priority 2014, published 2015).
